The text below walks through data of patent publication US11845770B2, “Ascaroside derivatives and methods of use” (California Institute of Technology, priority 2019, dated 2023).

Usually half-life stands for the time needed for the level to fall by half in the phase considered. Read a high half-life as slow loss.

The nature of data set [1]: Stability in hepatocytes (mouse). The class given is in vitro ADME. As to conditions: cryopreserved mouse hepatocytes (suspension). As for the experimental part:
10 mM of 1 was provided as a 1000× stock solution in dimethylsulfoxide (DMSO), and the stock solution was diluted to 1 mM with DMSO in 96-well plates. 30 mM of positive compounds (7-ethoxycoumarin and 7-hydroxycoumarin) were provided as a 1000× stock solution in DMSO, and the stock solution was diluted to 3 mM with DMSO in 96-well plates. 20 μL of 1000× stock solution of each compound were pipetted and was mixed with 380 μL of 45% MeOH/H2O to obtain 50 μM of 1 and 150 μM of the positive control compound solutions to form 50× intermediate solutions. 20 μL of 50× intermediate solution of each compound were pipetted and was mixed with […] of pre-warmed incubation medium to obtain 5 μM of 1 and 15 μM of the positive control compound solutions to form 5× working solutions. The incubation medium was Williams' Medium E (no phenol red) containing 2 mM L-glutamine and 25 mM HEPES. 10 μL of 5× working solutions of each compound were pipetted into appropriate wells in a 96-well plate for time points of 0 minutes, 15 minutes, 30 minutes, 60 minutes, and 90 minutes in duplicates. The plates with compounds were kept warm in an incubator at 37° C.
A cell suspension was prepared by thawing cryopreserved cells, isolating the cells, and suspending the cells in thawing medium. […]
The remaining percentage of 1 after incubation was calculated according to the following equation. […]

In data set [2] the test system is THP1 human macrophage cells. Description: Stimulation of THP-1 cells, IL-6 at 6 or 36 hours post stimulation. Format: cell-based. As to conditions: THP1-derived macrophages, IFNγ + LPS, 0.1 to 500 μM, FIG. 9. Here is the method:
Human immortalized monocytic THP-1 cells were maintained in phenol red free RPMI 1640 medium containing 10% (v/v) fetal bovine serum (FBS), 2 mM L-glutamine, penicillin (100 units/mL), streptomycin (100 μg/mL), amphotericin B (2.5 μg/mL), and 50 μM beta-mercaptoethanol (BME) at 37° C. with 5% (v/v) CO2. THP-1 cells were seeded in 1 mL of THP-1 medium (cell culture medium containing 10% (v/v) FBS, 2 mM L-glutamine, penicillin (100 units/mL), streptomycin (100 μg/mL), amphotericin B ([…]), and 50 μM BME)/well at a density of 1×10^6 cells/mL in six-well plates. Cells were differentiated by adding 10, 50, or 100 nM phorbol 12-myristate 13-acetate (PMA) to each well before incubating cells for 5.5 h at 37° C. with 5% (v/v) CO2. Without removing the media, different concentrations (either 0, 0.1, 1.0, 10, 100, 200, or 500 μM) of the compound were added to each well. Cells were stimulated, within 30 min by adding 20 ng/mL interferon gamma (IFNγ) and 100 ng/mL lipopolysaccharide (LPS) to each well. Following stimulation, the THP-1 cells were incubated for 6 or 36 hours at 37° C. with 5% (v/v) CO2. Supernatant was collected and stored at −80° C. until use.
IL-6 released from supernatants collected at 6 or 36 hours post stimulation with IFNγ and LPS were measured using the AlphaLISA Human IL-6 detection kit.

Regarding `C[C@H](CC/C=C/C(=O)O)O[C@@H]1O[C@@H](C)[C@H](O)C[C@H]1O` [ascr #7, reference compound], the half-life at 1 µM in data set [1] is greater than 3.61 h.

On to `C[C@H](CC/C=C/C(=O)OC(C)(C)C)O[C@@H]1O[C@@H](C)[C@H](O)C[C@H]1O` [Compound 1, tert-butyl (2E,6R)-6-{[(2R,3R,5R,6S)-3,5-dihydroxy-6-methyloxan-2-yl]oxy}hept-2-enoate], for which, in data set [2], the “percent inhibition relative to Control of IL-6 levels secreted” value is given as “inhibited IL-6 expression in statistically significant, dose-dependent manner”.
